Results from patent US8877719B2, “Pest controlling composition” (Sumitomo Chemical Company, Limited, priority 2009, dated 2014).

Key:
Type in all cases: in vivo
[1] = tested on: Tetranychus urticae female adult insects; test: Test Example 3: kidney bean leaf piece spray test, insecticidal ratio on Tetranychus urticae female adults; details: sprayed on kidney bean leaf pieces, three days after
Method: (§1) A flowable formulation containing 11.7 wt % of spinetoram (spinetoram J:spinetoram L=75:25 (weight ratio)) was diluted with water containing 0.02 vol % of a spreading agent (trade name: Sindain, manufactured by Sumitomo Chemical Co., Ltd.) so as to obtain a given concentration.
(§2) A flowable formulation containing 22.4 wt % of spirotetramat (trade name: Movento, manufactured by Bayer CropScience) was diluted with water containing 0.02 vol % of a spreading agent (trade name: Sindain, manufactured by Sumitomo Chemical Co., Ltd.) so as to obtain a given concentration.
(§3) A flowable formulation containing 22.9 wt % of spiromesifen (trade name: CLEAZAR, manufactured by Bayer CropScience) was diluted with water containing 0.02 vol % of a spreading agent (trade name: Sindain, manufactured by Sumitomo Chemical Co., Ltd.) so as to obtain a given concentration.
These water-diluted solutions were mixed to prepare a test drug solution.
A kidney bean leaf piece having a diameter of about 2 cm was inoculated with 10 Tetranychus urticae female adult insects. Then, the test drug solution was sprayed in an amount of 0.3 ml per two pieces of the kidney bean leaves. Three days after, life-or-death of the female adult insects was observed. From the observed results, the insecticidal ratio was calculated in the same manner as in Test Example 1. The test was repeated three times.

[2] = tested on: Spodoptera litura third-instar larvae; test: Test Example 2: cabbage leaf immersion test, insecticidal ratio on Spodoptera litura third-instar larvae (spinetoram / spiromesifen); details: cabbage leaf immersed 60 seconds, four days after
Method: as §1, §3
The spinetoram water-diluted solution and spiromesifen water-diluted solution were mixed to prepare a test drug solution.
(§4) Cabbage was planted in a pot having a capacity of 860 ml and allowed to grow to 4-leaves stage. Leaves of the cabbage were cut one by one. One of the cabbage leaves was immersed in a test drug solution for 60 seconds. The cabbage leaf was air-dried, then, the cabbage leaf was placed in a cup having a capacity of 500 ml containing filter paper laid therein. Ten Spodoptera litura third-instar larvae were released in this cup. Four days after, life-or-death of the tested insects was observed. From the observed results, the insecticidal ratio was calculated in the same manner as in Test Example 1. The test was repeated three times.

[3] = tested on: Spodoptera litura third-instar larvae; test: Test Example 1: cabbage leaf immersion test, insecticidal ratio on Spodoptera litura third-instar larvae (spinetoram / spirotetramat); details: cabbage leaf immersed 60 seconds, four days after
Method: as §1, §2
The spinetoram water-diluted solution and spirotetramat water-diluted solution were mixed to prepare a test drug solution.
as §4, with “The results were corrected by” for “From”, “following formula, thereby calculating” for “observed results, the”, “ratio.” for “ratio was calculated in the same manner as in Test Example 1.”, “times. Insecticidal ratio (%)=100×(Mt−Mc)/(100−Mc)” for “times.”
Mt: insect death ratio (%) in test compound-treated area
Mc: insect death ratio (%) in test compound-non-treated area

Cc1cc(C)c(C2=C(OC(=O)CC(C)(C)C)C3(CCCC3)OC2=O)c(C)c1 [spiromesifen, 2-oxo-3-(2,4,6-trimethylphenyl)-1-oxaspiro[4,4]nona-3-en-4-yl 3,3-dimethylbutanoate]
Insecticidal ratio (%) ([1]; 3.2 ppm): 28.0% | Insecticidal ratio (%) ([2]; 112 ppm): 3.4%

CCOC(=O)OC1=C(c2cc(C)ccc2C)C(=O)N[C@]12CC[C@@H](OC)CC2 [spirotetramat, cis-4-(ethoxycarbonyloxy)-8-methoxy-3-(2,5-xylyl)-1-azaspiro[4,5]dec-3-en-2-one]
Insecticidal ratio (%) ([1]; 0.8 ppm): 0% | Insecticidal ratio (%) ([3]; 56 ppm): 10.3% | Insecticidal ratio (%) ([3]; 112 ppm): 20.7%

spinetoram
Insecticidal ratio (%) ([1]; 12.5 ppm): 28.4% | Insecticidal ratio (%) ([2]; 0.73 ppm): 6.9% | Insecticidal ratio (%) ([3]; 0.73 ppm): 17.2%
